Assay results reported in patent US20260027116A1, “Methods of Treating Chronic Graft-Versus-Host Disease Following Allogeneic Hematopoietic Stem Cell Transplantation” (Kadmon Corporation, LLC, priority 2022, published 2026).

System: chronic graft-versus-host disease (cGVHD)
Assay: Example 1 phase IIa study: response per 2014 NIH cGVHD criteria (ORR, BOR, DOR, TTR, TTNT, FFS, OS, organ response)
Assay type: in vivo, human
Conditions: for DOR, median (95% CI) / TTR, median: responder population
Text: Eligible patients were allogeneic bone marrow transplant or allogeneic hematopoietic cell transplant (alloHCT) recipients of age≥18 years with persistent cGVHD manifestations after having received one to three prior systemic lines of therapy and who were receiving corticosteroid treatment with or without a calcincurin inhibitor and/or concurrent extracorporeal photopheresis.
Inclusion criteria. Adult male and female subjects at least 18 years of age who had allogenic bone marrow transplant or hematopoietic stem cell transplantation. Received glucocorticoid therapy and calcineurin therapy or glucocorticoid therapy alone for cGVHD at study entry. Participants on calcineurin therapy only, without glucocorticoid therapy, were not eligible. Participants also received other therapies thought not to be immunosuppressive (such as extracorporeal photopheresis; ECP), were considered for enrollment in this study on a case-by-case basis. […] No more than 3 prior lines of treatment for cGVHD. Karnofsky Performance Scale of greater than (>) 40.
Exclusion Criteria. Participant who was pregnant or breastfeeding. Received an investigational GVHD treatment within 28 days of study entry. Had acute GVHD. Taken any medication known to be a moderate or strong inhibitor of the cytochrome (CY) P3A4 isozyme or any drugs that are moderate or strong CYP3A4 inducers. History or other evidence of severe illness or any other conditions that would make the participant, in the opinion of the investigator, unsuitable for the study (such as poorly controlled psychiatric disease or coronary artery disease). Regular and excessive use of alcohol within the 6 months prior to study entry defined as alcohol intake>14 drinks per week in a man or >7 drinks per week in a woman. Approximately 10 grams of alcohol equals one “drink” unit. One unit equals 1 ounce of distilled spirits, one 12-ounce beer, or one 4-ounce glass of wine. Known history of human immunodeficiency virus or active hepatitis C virus or hepatitis B virus. Diagnosed with another malignancy (other than malignancy for which transplant was performed) within 3 years of enrollment, with the exception of completely resected basal cell or squamous cell carcinoma of the skin, resected in situ cervical malignancy, resected breast ductal carcinoma in situ, or low-risk prostate cancer after curative resection. Relapse of the underlying cancer or post-transplant lymphoproliferative disease at the time of screening. […] Taken other immunosuppressant drugs for GVHD, including mammalian target of rapamycin inhibitors (Note: Only steroids, calcineurin inhibitors, and ECP are acceptable). Corrected QT interval using Fridericia's formula >450 milliseconds.
(FIG. 1) Before enrollment of the subsequent cohort, safety data in each previous cohort were analyzed after eight patients reached two months of treatment to assure that there was no safety signal. […] No safety concerns were identified, allowing for planned dose escalation.
Progression was defined per the 2014 NIH cGVHD Consensus Criteria. Long-term follow-up was conducted every 8 weeks until study closeout. […] Screening was conducted within 28 days of the first study dose. Response was initially assessed after two cycles; however, this was amended to evaluate response on day 1 of each cycle, starting at cycle 2 day 1.
All responses were assessed by the investigators.
Assuming a best ORR of 25%, which was determined to be clinically meaningful, the study was expected to have approximately 90% probability to show a response in ≥2 patients per cohort. This study was not powered to show significant differences between cohorts with respect to efficacy, AEs, or PD analyses. The primary analysis was conducted using the safety population, defined as enrolled patients who received ≥1 dose of study medication. The Clopper-Pearson (exact) method was used to construct the two-sided 95% CI for ORR. The Kaplan-Meier (K-M) method was used to calculate estimates of FFS and OS. […]

CC(C)NC(=O)COc1cccc(-c2nc(Nc3ccc4[nH]ncc4c3)c3ccccc3n2)c1 [Belumosudil, 2-{3-[4-(1H-indazol-5-ylamino)-2-quinazolinyl]phenoxy}-N-(propan-2-yl) acetamide]
BOR CR, participants (%) (Cohort 1 200 mg QD): 0 (0%) participants | BOR LOR-M, participants (%) (Cohort 1 200 mg QD): 2 (12%) participants | BOR LOR-P, participants (%) (Cohort 1 200 mg QD): 2 (12%) participants | BOR LOR-U, participants (%) (Cohort 1 200 mg QD): 2 (12%) participants | BOR PR, participants (%) (Cohort 1 200 mg QD): 11 (65%) participants | FFS, median (95% CI) (Cohort 1 200 mg QD): 11 (4-na* %) months | ORR subgroup refractory to previous LOT, n/N (Cohort 1 200 mg QD): 7/11 | ORR subgroup severe cGVHD, n/N (Cohort 1 200 mg QD): 8/12 | ORR subgroup ≤2 prior LOTs, n/N (Cohort 1 200 mg QD): 10/15 | ORR subgroup ≤4 organs involved, n/N (Cohort 1 200 mg QD): 4/8 | ORR, % (95% CI) (Cohort 1 200 mg QD): 65% | TTNT, median (95% CI) (Cohort 1 200 mg QD): 15 (5-NA* %) months | best response (CR or PR) in Skin, percentage of participants (Cohort 1 200 mg QD): (23%) | best response in Esophagus, percentage of participants (Cohort 1 200 mg QD): (50%) | best response in Eyes, percentage of participants (Cohort 1 200 mg QD): (36%) | best response in Joints and Fascia, percentage of participants (Cohort 1 200 mg QD): (55%) | best response in Lower GI tract, percentage of participants (Cohort 1 200 mg QD): (0%) | best response in Lungs, percentage of participants (Cohort 1 200 mg QD): (0%) | best response in Mouth, percentage of participants (Cohort 1 200 mg QD): (46%) | best response in Upper GI tract, percentage of participants (Cohort 1 200 mg QD): (100%) | DOR, median (95% CI) (Cohort 1, 200 mg QD): 40 (8-na* %) weeks | TTR, median (Cohort 1, 200 mg QD): 8.14 weeks | BOR CR, participants (%) (Cohort 2 200 mg BID): 0 (0%) participants | BOR LOR-M, participants (%) (Cohort 2 200 mg BID): 1 (6%) participants | BOR LOR-P, participants (%) (Cohort 2 200 mg BID): 1 (6%) participants | BOR LOR-U, participants (%) (Cohort 2 200 mg BID): 3 (19%) participants | BOR PR, participants (%) (Cohort 2 200 mg BID): 11 (69%) participants | FFS, median (95% CI) (Cohort 2 200 mg BID): 10 (4-19%) months | ORR subgroup refractory to previous LOT, n/N (Cohort 2 200 mg BID): 6/9 | ORR subgroup severe cGVHD, n/N (Cohort 2 200 mg BID): 9/14 | ORR subgroup ≤2 prior LOTs, n/N (Cohort 2 200 mg BID): 5/8 | ORR subgroup ≤4 organs involved, n/N (Cohort 2 200 mg BID): 8/10 | ORR, % (95% CI) (Cohort 2 200 mg BID): 69% | TTNT, median (95% CI) (Cohort 2 200 mg BID): 10 (4-19%) months | best response (CR or PR) in Skin, percentage of participants (Cohort 2 200 mg BID): (17%) | best response in Eyes, percentage of participants (Cohort 2 200 mg BID): (36%) | best response in Joints and Fascia, percentage of participants (Cohort 2 200 mg BID): (46%) | best response in Liver, percentage of participants (Cohort 2 200 mg BID): (50%) | best response in Lower GI tract, percentage of participants (Cohort 2 200 mg BID): (100%) | best response in Lungs, percentage of participants (Cohort 2 200 mg BID): (0%) | best response in Mouth, percentage of participants (Cohort 2 200 mg BID): (46%) | best response in Upper GI tract, percentage of participants (Cohort 2 200 mg BID): (100%) | DOR, median (95% CI) (Cohort 2, 200 mg BID): 11 (2-35%) weeks | TTR, median (Cohort 2, 200 mg BID): 8.14 weeks | BOR CR, participants (%) (Cohort 3 400 mg QD): 0 (0%) participants | BOR LOR-M, participants (%) (Cohort 3 400 mg QD): 0 (0%) participants | BOR LOR-P, participants (%) (Cohort 3 400 mg QD): 1 (5%) participants | BOR LOR-U, participants (%) (Cohort 3 400 mg QD): 4 (19%) participants | BOR PR, participants (%) (Cohort 3 400 mg QD): 12 (57%) participants | FFS, median (95% CI) (Cohort 3 400 mg QD): 10 (3-16%) months | ORR subgroup refractory to previous LOT, n/N (Cohort 3 400 mg QD): 9/15 | ORR subgroup severe cGVHD, n/N (Cohort 3 400 mg QD): 8/16 | ORR subgroup ≤2 prior LOTs, n/N (Cohort 3 400 mg QD): 8/12 | ORR subgroup ≤4 organs involved, n/N (Cohort 3 400 mg QD): 7/9 | ORR, % (95% CI) (Cohort 3 400 mg QD): 62% | TTNT, median (95% CI) (Cohort 3 400 mg QD): 14 (3-NA %) months | best response (CR or PR) in Skin, percentage of participants (Cohort 3 400 mg QD): (13%) | best response in Esophagus, percentage of participants (Cohort 3 400 mg QD): (25%) | best response in Eyes, percentage of participants (Cohort 3 400 mg QD): (24%) | best response in Joints and Fascia, percentage of participants (Cohort 3 400 mg QD): (42%) | best response in Lower GI tract, percentage of participants (Cohort 3 400 mg QD): (0%) | best response in Lungs, percentage of participants (Cohort 3 400 mg QD): (30%) | best response in Mouth, percentage of participants (Cohort 3 400 mg QD): (46%) | best response in Upper GI tract, percentage of participants (Cohort 3 400 mg QD): (50%) | DOR, median (95% CI) (Cohort 3, 400 mg QD): 16 (4-38%) weeks | TTR, median (Cohort 3, 400 mg QD): 8.07 weeks | 2-year OS rate (Example 1): 82% | 12-month FFS rate with response (Example 1): 24% | ORR among patients with nonsevere cGVHD (Example 1): 83% | median DOR across all responders (Example 1): 35 weeks | share of all responses achieved by first response assessment at week 8 (Example 1): > 75% | FFS rate (Example 1, at 6 months): 76% | FFS rate (Example 1, at 12 months): 47% | median TTNT (Example 1, pooled): 14 months | patients with progression in joints (Example 1, safety population (FIG. 3B)): 11 patients | ORR subgroup refractory to previous LOT, % (95% CI) (Total, N=54): 63% | ORR subgroup severe cGVHD, % (95% CI) (Total, N=54): 60% | ORR subgroup ≤2 prior LOTs, % (95% CI) (Total, N=54): 66% | ORR subgroup ≤4 organs involved, % (95% CI) (Total, N=54): 70% | ORR, % (95% CI) (Total, N=54): 65% | ORR subgroup refractory to previous LOT, n/N (Total, N=54, listed as KD025): 22/35 | ORR subgroup severe cGVHD, n/N (Total, N=54, listed as KD025): 25/42 | ORR subgroup ≤2 prior LOTs, n/N (Total, N=54, listed as KD025): 23/35 | ORR subgroup ≤4 organs involved, n/N (Total, N=54, listed as KD025): 19/27
